Test results: patent publication US8969565B2, “Imidazo[1,2-b]pyridazine-based compounds, compositions comprising them, and methods of their use” (Lexicon Pharmaceuticals, Inc., priority 2012, dated 2015)
pIC50: −log10 of the molar value. Each block holds one compound with its values, some of them ahead of it.

Key:
AAK1 [1] = target: T1, AAK1 (Homo sapiens, UniProt Q2M2I8); assay: P81 filter plate assay; assay type: biochemical; settings: full-length human AAK1, Mu2 substrate
T1 construct: HA; expressed in transfected cells; host or cells: HEK293F
T1 sequence (Q2M2I8 1-863 isoform Q2M2I8-2): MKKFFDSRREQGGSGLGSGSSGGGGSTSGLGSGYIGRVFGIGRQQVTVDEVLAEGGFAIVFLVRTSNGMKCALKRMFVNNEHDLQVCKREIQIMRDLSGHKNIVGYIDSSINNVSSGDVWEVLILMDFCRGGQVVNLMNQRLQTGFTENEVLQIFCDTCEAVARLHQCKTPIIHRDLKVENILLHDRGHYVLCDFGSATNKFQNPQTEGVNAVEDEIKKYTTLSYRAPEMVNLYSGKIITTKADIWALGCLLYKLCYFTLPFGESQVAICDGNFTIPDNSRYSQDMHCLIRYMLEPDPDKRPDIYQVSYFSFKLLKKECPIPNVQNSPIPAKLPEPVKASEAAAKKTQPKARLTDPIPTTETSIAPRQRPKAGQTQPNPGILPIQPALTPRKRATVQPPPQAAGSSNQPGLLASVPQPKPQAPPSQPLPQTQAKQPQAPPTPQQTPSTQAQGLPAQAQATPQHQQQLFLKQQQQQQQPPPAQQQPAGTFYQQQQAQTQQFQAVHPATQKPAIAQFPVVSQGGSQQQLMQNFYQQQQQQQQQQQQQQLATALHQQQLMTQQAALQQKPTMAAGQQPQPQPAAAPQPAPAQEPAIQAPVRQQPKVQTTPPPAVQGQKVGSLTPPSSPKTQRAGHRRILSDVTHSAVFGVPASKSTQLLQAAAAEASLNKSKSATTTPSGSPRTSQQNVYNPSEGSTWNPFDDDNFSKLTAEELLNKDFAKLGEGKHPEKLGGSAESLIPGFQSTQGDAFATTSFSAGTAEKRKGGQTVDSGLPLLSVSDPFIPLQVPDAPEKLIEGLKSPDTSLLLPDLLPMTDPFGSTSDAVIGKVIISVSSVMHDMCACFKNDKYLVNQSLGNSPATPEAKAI

AAK1 [2] = target: T1, AAK1; assay: HEK281 cell-based assay (phospho-mu2 Western blot in transfected HEK293F cells); settings: 3 hours incubation, read-out: CBA IC50
Summary of the method: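 HEK293F cells co-transfected with full-length human AAK1/HA and Flag/AP2M1 were treated next day with 5 compound concentrations (3-fold dilutions) in DMEM+0.5% FBS for 3 hours at 37° C. Lysates were Western blotted for phospho-mu2, with total mu2 detected by anti-Flag.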

Structure (SMILES): O=C(OC1CCC1)N1CCC[C@H]1CNc1ccc2ncc(Br)n2n1 [(S)-cyclobutyl 2-(((3-bromoimidazo[1,2-b]pyridazin-6-yl)amino)methyl)pyrrolidine-1-carboxylate]
pIC50 (AAK1 [1]): ≥ 8.00 | pIC50 (AAK1 [2]): ≥ 7.00

Structure (SMILES): NCc1ccc(-c2cnc3ccc(NC[C@@H]4CCCN4C(=O)OC4CCCC4)nn23)cc1 [(S)-cyclopentyl 2-(((3-(4-(aminomethyl)phenyl)imidazo[1,2-b]pyridazin-6-yl)amino)methyl)pyrrolidine-1-carboxylate]
pIC50 (AAK1 [1]): ≥ 8.00 | pIC50 (AAK1 [2]): ≥ 8.00

Structure (SMILES): O=C(OC1CCCC1)N1CCC[C@H]1CNc1ccc2ncc(-c3ccncc3)n2n1 [(S)-cyclopentyl 2-(((3-(pyridin-4-yl)imidazo[1,2-b]pyridazin-6-yl)amino)methyl)pyrrolidine-1-carboxylate]
pIC50 (AAK1 [1]): ≥ 8.00 | pIC50 (AAK1 [2]): ≥ 8.00

Structure (SMILES): O=C(OC1CCCC1)N1CCC[C@H]1CNc1ccc2ncc(Br)n2n1 [(S)-cyclopentyl 2-(((3-bromoimidazo[1,2-b]pyridazin-6-yl)amino)methyl)pyrrolidine-1-carboxylate]
pIC50 (AAK1 [1]): ≥ 8.00 | pIC50 (AAK1 [2]): ≥ 8.00

Structure (SMILES): O=C(OC1CCCC1)N1CCC[C@H]1CNc1ccc2ncc(-c3ccccc3)n2n1 [(S)-cyclopentyl 2-(((3-phenylimidazo[1,2-b]pyridazin-6-yl)amino)methyl)pyrrolidine-1-carboxylate]
pIC50 (AAK1 [1]): ≥ 8.00 | pIC50 (AAK1 [2]): ≥ 7.00

Structure (SMILES): [2H]C([2H])([2H])Oc1ncccc1-c1cnc2ccc(N3CC[C@H](N(C)C(=O)OCC)C3)nn12 [(S)-ethyl (1-(3-(2-(trideuteromethoxy)pyridin-3-yl)imidazo[1,2-b]pyridazin-6-yl)pyrrolidin-3-yl)(methyl)carbamate]
pIC50 (AAK1 [1]): ≥ 8.00 | pIC50 (AAK1 [2]): ≥ 7.00

Structure (SMILES): COc1ncccc1-c1cnc2ccc(N(C)C[C@@H]3CCCN3C(=O)OC(C)C)nn12 [(S)-isopropyl 2-(((3-(2-methoxypyridin-3-yl)imidazo[1,2-b]pyridazin-6-yl)(methyl)amino)methyl)pyrrolidine-1-carboxylate]
pIC50 (AAK1 [1]): ≥ 8.00 | pIC50 (AAK1 [2]): ≥ 8.00

Structure (SMILES): COc1ncccc1-c1cnc2ccc(NC[C@@H]3CCCN3C(=O)OC(C)C)nn12 [(S)-isopropyl 2-(((3-(2-methoxypyridin-3-yl)imidazo[1,2-b]pyridazin-6-yl)amino)methyl)pyrrolidine-1-carboxylate]
pIC50 (AAK1 [1]): ≥ 8.00 | pIC50 (AAK1 [2]): ≥ 8.00

Structure (SMILES): CC(C)OC(=O)N1CCC[C@H]1CNc1ccc2ncc(C#N)n2n1 [(S)-isopropyl 2-(((3-cyanoimidazo[1,2-b]pyridazin-6-yl)amino)methyl)pyrrolidine-1-carboxylate]
pIC50 (AAK1 [1]): ≥ 8.00 | pIC50 (AAK1 [2]): ≥ 6.00

Structure (SMILES): CC(C)(C)COC(=O)N1CCC[C@H]1CNc1ccc2ncc(-c3ccc(CN)cc3)n2n1 [(S)-neopentyl 2-(((3-(4-(aminomethyl)phenyl)imidazo[1,2-b]pyridazin-6-yl)amino)methyl)pyrrolidine-1-carboxylate]
pIC50 (AAK1 [1]): ≥ 8.00 | pIC50 (AAK1 [2]): ≥ 8.00

Structure (SMILES): CC(C)(C)COC(=O)N1CCC[C@H]1CNc1ccc2ncc(-c3ccncc3)n2n1 [(S)-neopentyl 2-(((3-(pyridin-4-yl)imidazo[1,2-b]pyridazin-6-yl)amino)methyl)pyrrolidine-1-carboxylate]
pIC50 (AAK1 [1]): ≥ 8.00 | pIC50 (AAK1 [2]): ≥ 7.00

Structure (SMILES): CC(C)(C)OC(=O)N1CCC[C@H]1CNc1ccc2ncc(-c3ccc(CN)cc3)n2n1 [(S)-tert-butyl 2-(((3-(4-(aminomethyl)phenyl)imidazo[1,2-b]pyridazin-6-yl)amino)methyl)pyrrolidine-1-carboxylate]
pIC50 (AAK1 [1]): ≥ 8.00 | pIC50 (AAK1 [2]): ≥ 8.00

Structure (SMILES): CC(C)(C)OC(=O)N1CCC[C@H]1CNc1ccc2ncc(-c3ccc(C(N)=O)cc3)n2n1 [(S)-tert-butyl 2-(((3-(4-carbamoylphenyl)imidazo[1,2-b]pyridazin-6-yl)amino)methyl)pyrrolidine-1-carboxylate]
pIC50 (AAK1 [1]): ≥ 8.00 | pIC50 (AAK1 [2]): ≥ 8.00

Structure (SMILES): CNC(=O)c1cnc2ccc(NC[C@@H]3CCCN3C(=O)OC(C)(C)C)nn12 [(S)-tert-butyl 2-(((3-(methylcarbamoyl)imidazo[1,2-b]pyridazin-6-yl)amino)methyl)pyrrolidine-1-carboxylate]
pIC50 (AAK1 [1]): ≥ 8.00 | pIC50 (AAK1 [2]): ≥ 7.00

Structure (SMILES): CC(C)(C)OC(=O)N1CC[C@H]1CNc1ccc2ncc(Br)n2n1 [(S)-tert-butyl 2-(((3-bromoimidazo[1,2-b]pyridazin-6-yl)amino)methyl)azetidine-1-carboxylate]
pIC50 (AAK1 [1]): ≥ 8.00 | pIC50 (AAK1 [2]): ≥ 7.00

Structure (SMILES): Cc1cnc2ccc(NC[C@@H]3CCCN3C(=O)OC(C)(C)C)nn12 [(S)-tert-butyl 2-(((3-methylimidazo[1,2-b]pyridazin-6-yl)amino)methyl)pyrrolidine-1-carboxylate]
pIC50 (AAK1 [1]): ≥ 8.00 | pIC50 (AAK1 [2]): ≥ 7.00

Structure (SMILES): CC(C)(C)OC(=O)N1CCC[C@H]1CNc1ccc2ncc(-c3ccccc3)n2n1 [(S)-tert-butyl 2-(((3-phenylimidazo[1,2-b]pyridazin-6-yl)amino)methyl)pyrrolidine-1-carboxylate]
pIC50 (AAK1 [1]): ≥ 8.00 | pIC50 (AAK1 [2]): ≥ 8.00

Structure (SMILES): COc1ccccc1-c1cnc2ccc(N3CC[C@H](N(C)C(=O)OC(C)(C)C)C3)nn12 [(S)-tert-butyl (1-(3-(2-methoxyphenyl)imidazo[1,2-b]pyridazin-6-yl)pyrrolidin-3-yl)(methyl)carbamate]
pIC50 (AAK1 [1]): ≥ 8.00 | pIC50 (AAK1 [2]): ≥ 7.00

Structure (SMILES): CN(C(=O)OC(C)(C)C)[C@H]1CCN(c2ccc3ncc(-c4ccncc4)n3n2)C1 [(S)-tert-butyl methyl(1-(3-(pyridin-4-yl)imidazo[1,2-b]pyridazin-6-yl)pyrrolidin-3-yl)carbamate]
pIC50 (AAK1 [1]): ≥ 8.00 | pIC50 (AAK1 [2]): ≥ 6.00

Structure (SMILES): C=COC(=O)N1CCC[C@H]1CNc1ccc2ncc(-c3ccccc3OC)n2n1 [(S)-vinyl 2-(((3-(2-methoxyphenyl)imidazo[1,2-b]pyridazin-6-yl)amino)methyl)pyrrolidine-1-carboxylate]
pIC50 (AAK1 [1]): ≥ 8.00 | pIC50 (AAK1 [2]): ≥ 7.00

Structure (SMILES): COc1ccccc1-c1cnc2ccc(N3CC[C@H](N(C)C(=O)N4CCCC4)C3)nn12 [(S)—N-(1-(3-(2-methoxyphenyl)imidazo[1,2-b]pyridazin-6-yl)pyrrolidin-3-yl)-N-methylpyrrolidine-1-carboxamide]
pIC50 (AAK1 [1]): ≥ 8.00 | pIC50 (AAK1 [2]): ≥ 7.00

Now from value to compound:

pIC50 (AAK1 [1]): ≥ 8.00 | pIC50 (AAK1 [2]): ≥ 7.00
Structure (SMILES): CCOC(=O)N(C)[C@H]1CCN(c2ccc3ncc(-c4cc(C)cnc4OC)n3n2)C1 [(S)-ethyl (1-(3-(2-methoxy-5-methylpyridin-3-yl)imidazo[1,2-b]pyridazin-6-yl)pyrrolidin-3-yl)(methyl)carbamate]

pIC50 (AAK1 [1]): ≥ 8.00 | pIC50 (AAK1 [2]): ≥ 7.00
Structure (SMILES): CCOC(=O)N(C)[C@H]1CCN(c2ccc3ncc(-c4cccnc4OC)n3n2)C1 [(S)-ethyl (1-(3-(2-methoxypyridin-3-yl)imidazo[1,2-b]pyridazin-6-yl)pyrrolidin-3-yl)(methyl)carbamate]

pIC50 (AAK1 [1]): ≥ 8.00 | pIC50 (AAK1 [2]): ≥ 7.00
Structure (SMILES): CCOC(=O)N(C)[C@H]1CCN(c2ccc3ncc(-c4cc(F)ccc4OC)n3n2)C1 [(S)-ethyl (1-(3-(5-fluoro-2-methoxyphenyl)imidazo[1,2-b]pyridazin-6-yl)pyrrolidin-3-yl)(methyl)carbamate]

pIC50 (AAK1 [1]): ≥ 8.00 | pIC50 (AAK1 [2]): ≥ 7.00
Structure (SMILES): CCOC(=O)N(C)[C@H]1CCN(c2ccc3ncc(-c4cc(F)cnc4OC)n3n2)C1 [(S)-ethyl (1-(3-(5-fluoro-2-methoxypyridin-3-yl)imidazo[1,2-b]pyridazin-6-yl)pyrrolidin-3-yl)(methyl)carbamate]

pIC50 (AAK1 [1]): ≥ 8.00 | pIC50 (AAK1 [2]): ≥ 7.00
Structure (SMILES): COc1ccc(-c2cnc3ccc(N4CC[C@H](N(C)C(=O)OC(C)C)C4)nn23)c(OC)n1 [(S)-isopropyl (1-(3-(2,6-dimethoxypyridin-3-yl)imidazo[1,2-b]pyridazin-6-yl)pyrrolidin-3-yl)(methyl)carbamate]

pIC50 (AAK1 [1]): ≥ 8.00 | pIC50 (AAK1 [2]): ≥ 8.00
Structure (SMILES): [2H]C([2H])([2H])Oc1ncccc1-c1cnc2ccc(N3CC[C@H](N(C)C(=O)OC(C)C)C3)nn12 [(S)-isopropyl (1-(3-(2-(tri-deuteromethoxy)pyridin-3-yl)imidazo[1,2-b]pyridazin-6-yl)pyrrolidin-3-yl)(methyl)carbamate]

pIC50 (AAK1 [1]): ≥ 8.00 | pIC50 (AAK1 [2]): ≥ 7.00
Structure (SMILES): COc1ncc(C)cc1-c1cnc2ccc(N3CC[C@H](N(C)C(=O)OC(C)C)C3)nn12 [(S)-isopropyl (1-(3-(2-methoxy-5-methylpyridin-3-yl)imidazo[1,2-b]pyridazin-6-yl)pyrrolidin-3-yl)(methyl)carbamate]

pIC50 (AAK1 [1]): ≥ 8.00 | pIC50 (AAK1 [2]): ≥ 7.00
Structure (SMILES): COc1cc(-c2cnc3ccc(N4CC[C@H](N(C)C(=O)OC(C)C)C4)nn23)c(OC)nn1 [(S)-isopropyl (1-(3-(3,6-dimethoxypyridazin-4-yl)imidazo[1,2-b]pyridazin-6-yl)pyrrolidin-3-yl)(methyl)carbamate]

pIC50 (AAK1 [1]): ≥ 8.00 | pIC50 (AAK1 [2]): ≥ 8.00
Structure (SMILES): CC(C)OC(=O)N(C)[C@H]1CCN(c2ccc3ncc(-c4ccc(CN)cc4)n3n2)C1 [(S)-isopropyl (1-(3-(4-(aminomethyl)phenyl)imidazo[1,2-b]pyridazin-6-yl)pyrrolidin-3-yl)(methyl)carbamate]

pIC50 (AAK1 [1]): ≥ 8.00 | pIC50 (AAK1 [2]): ≥ 8.00
Structure (SMILES): COc1ccc(F)cc1-c1cnc2ccc(N3CC[C@H](N(C)C(=O)OC(C)C)C3)nn12 [(S)-isopropyl (1-(3-(5-fluoro-2-methoxyphenyl)imidazo[1,2-b]pyridazin-6-yl)pyrrolidin-3-yl)(methyl)carbamate]

pIC50 (AAK1 [1]): ≥ 8.00 | pIC50 (AAK1 [2]): ≥ 7.00
Structure (SMILES): COc1ncc(F)cc1-c1cnc2ccc(N3CC[C@H](N(C)C(=O)OC(C)C)C3)nn12 [(S)-isopropyl (1-(3-(5-fluoro-2-methoxypyridin-3-yl)imidazo[1,2-b]pyridazin-6-yl)pyrrolidin-3-yl)(methyl)carbamate]

pIC50 (AAK1 [1]): ≥ 8.00 | pIC50 (AAK1 [2]): ≥ 7.00
Structure (SMILES): CC(C)OC(=O)N(C)[C@H]1CCN(c2ccc3ncc(-c4cccnc4)n3n2)C1 [(S)-isopropyl methyl(1-(3-(pyridin-3-yl)imidazo[1,2-b]pyridazin-6-yl)pyrrolidin-3-yl)carbamate]

pIC50 (AAK1 [1]): ≥ 8.00 | pIC50 (AAK1 [2]): ≥ 8.00
Structure (SMILES): COc1nc(C)ccc1-c1cnc2ccc(N3CC[C@H](N(C)C(=O)OC(C)C)C3)nn12 [(S)-isopropyl(1-(3-(2-methoxy-6-methylpyridin-3-yl)imidazo[1,2-b]pyridazin-6-yl)pyrrolidin-3-yl)(methyl)carbamate]
